Test results: patent US20170197979A1, “BENZOTHIADIAZOLAMINES” (BAYER PHARMA AKTIENGESELLSCHAFT, priority 2014, published 2017)

Target: T1, human full-length MKNK1 (Homo sapiens, UniProt Q9BUB5, T385D)
T1 construct: GST (N); purchased Carna Biosciences 02-145; host or cells: insect cells (baculovirus expression system)
Test: MKNK1 kinase high ATP assay (TR-FRET)
Type: biochemical
Conditions: TR-FRET, high ATP (2 mM final), 15 min preincubation with enzyme, GST-MKNK1 (T344D); read-out: MKNK1 IC50
Procedure: MKNK1 Kinase High ATP Assay
MKNK1-inhibitory activity at high ATP of compounds of the present invention after their preincubation with MKNK1 was quantified employing the TR-FRET-based MKNK1 high ATP assay as described in the following paragraphs.
A recombinant fusion protein of Glutathione-S-Transferase (GST, N-terminally) and human full-length MKNK1 (amino acids 1-424 and T344D of accession number BAA 19885.1), expressed in insect cells using baculovirus expression system and purified via glutathione sepharose affinity chromatography, was purchased from Carna Biosciences (product no 02-145) and used as enzyme. As substrate for the kinase reaction the biotinylated peptide biotin-Ahx-IKKRKLTRRKSLKG (C-terminus in amide form) was used, which can be purchased e.g. from the company Biosyntan (Berlin-Buch, Germany).
For the assay 50 nL of a 100 fold concentrated solution of the test compound in DMSO was pipetted into a black low volume 384 well microtiter plate (Greiner Bio-One, Frickenhausen, Germany), 2 μL of a solution of MKNK1 in aqueous assay buffer [50 mM HEPES pH 7.5, 5 mM MgCl2, 1.0 mM dithiothreitol, 0.005% (v/v) Nonidet-P40 (Sigma)] was added and the mixture was incubated for 15 min at 22° C. to allow pre-binding of the test compounds to the enzyme before the start of the kinase reaction. Then the kinase reaction was started by the addition of 3 μL of a solution of adenosine-tri-phosphate (ATP, 3.3 mM=>final conc. in the 5 μL assay volume is 2 mM) and substrate (0.1 μM=>final conc. in the 5 μL assay volume is 0.06 μM) in assay buffer and the resulting mixture was incubated for a reaction time of 30 min at 22° C. The concentration of MKNK1 was adjusted depending of the activity of the enzyme lot and was chosen appropriate to have the assay in the linear range, typical concentrations were in the range of 0.003 μg/mL. The reaction was stopped by the addition of 5 μL of a solution of TR-FRET detection reagents (5 nM streptavidine-XL665 [Cisbio Bioassays, Codolet, France] and 1 nM anti-ribosomal protein S6 (pSer236)-antibody from Invitrogen [#44921G] and 1 nM LANCE EU-W1024 labeled ProteinG [Perkin-Elmer, product no. AD0071]) in an aqueous EDTA-solution (100 mM EDTA, 0.1% (w/v) bovine serum albumin in 50 mM HEPES pH 7.5).
The resulting mixture was incubated for 1 h at 22° C. to allow the formation of complex between the phosphorylated biotinylated peptide and the detection reagents. Subsequently the amount of phosphorylated substrate was evaluated by measurement of the resonance energy transfer from the Eu-chelate to the streptavidine-XL. Therefore, the fluorescence emissions at 620 nm and 665 nm after excitation at 350 nm were measured in a TR-FRET reader, e.g. a Rubystar (BMG Labtechnologies, Offenburg, Germany) or a Viewlux (Perkin-Elmer). The ratio of the emissions at 665 nm and at […] was taken as the measure for the amount of phosphorylated substrate. The data were normalised (enzyme reaction without inhibitor=0% inhibition, all other assay components but no enzyme=100% inhibition).

T1 sequence (Q9BUB5 1-424 isoform Q9BUB5-2 T344D): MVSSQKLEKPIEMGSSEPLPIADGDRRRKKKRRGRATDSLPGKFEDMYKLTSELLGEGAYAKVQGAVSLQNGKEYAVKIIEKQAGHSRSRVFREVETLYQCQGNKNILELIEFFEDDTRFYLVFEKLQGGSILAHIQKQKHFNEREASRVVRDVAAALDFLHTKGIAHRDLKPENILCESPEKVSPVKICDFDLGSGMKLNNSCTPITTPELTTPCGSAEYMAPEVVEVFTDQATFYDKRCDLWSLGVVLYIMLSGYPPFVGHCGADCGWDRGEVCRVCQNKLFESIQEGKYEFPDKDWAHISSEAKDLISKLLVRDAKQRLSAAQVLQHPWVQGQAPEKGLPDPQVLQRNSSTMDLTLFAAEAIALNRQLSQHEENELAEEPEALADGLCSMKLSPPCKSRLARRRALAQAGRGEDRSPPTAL

Compound | IC50
CN(CCN)C(=O)[C@H]1CCc2c(sc3ncnc(Nc4ccc5nnsc5c4)c23)C1 [Example 25, (7S)—N-(2-Aminoethyl)-4-(1,2,3-benzothiadiazol-6-ylamino)-N-methyl-5,6,7,8-tetrahydro[1]benzothieno[2,3-d]pyrimidine-7-carboxamide] | 3.2 nM
CN1C[C@H]2C[C@@H]1CN2C(=O)[C@H]1CCc2c(sc3ncnc(Nc4ccc5nnsc5c4)c23)C1 [Example 59, [(7S)-4-(1,2,3-Benzothiadiazol-6-ylamino)-5,6,7,8-tetrahydro[1]benzothieno[2,3-d]pyrimidin-7-yl][(1R,4R)-5-methyl-2,5-diazabicyclo[2.2.1]hept-2-yl]methanone] | 3.2 nM
CN(CCNC(=O)OC(C)(C)C)C(=O)[C@H]1CCc2c(sc3ncnc(Nc4ccc5nnsc5c4)c23)C1 [Example 22, tert-Butyl {2-[{[(7S)-4-(1,2,3-benzothiadiazol-6-ylamino)-5,6,7,8-tetrahydro[1]benzothieno[2,3-d]pyrimidin-7-yl]carbonyl}(methyl)amino]ethyl}carbamate] | 14 nM
CC1(O)CN(C(=O)[C@H]2CCc3c(sc4ncnc(Nc5ccc6nnsc6c5)c34)C2)C1 [Example 33, [(7S)-4-(1,2,3-Benzothiadiazol-6-ylamino)-5,6,7,8-tetrahydro[1]benzothieno[2,3-d]pyrimidin-7-yl](3-hydroxy-3-methylazetidin-1-yl)methanone] | 8 nM
CN1CCN(C(=O)[C@H]2CCc3c(sc4ncnc(Nc5ccc6nnsc6c5)c34)C2)CC1 [Example 34, [(7S)-4-(1,2,3-Benzothiadiazol-6-ylamino)-5,6,7,8-tetrahydro[1]benzothieno[2,3-d]pyrimidin-7-yl](4-methylpiperazin-1-yl)methanone] | 13 nM
CN(C)CCN(C)C1CCN(C(=O)[C@H]2CCc3c(sc4ncnc(Nc5ccc6nnsc6c5)c34)C2)CC1 [Example 21, [(7S)-4-(1,2,3-Benzothiadiazol-6-ylamino)-5,6,7,8-tetrahydro[1]benzothieno[2,3-d]pyrimidin-7-yl](4-{[2-(dimethylamino)ethyl](methyl)amino}piperidin-1-yl)methanone] | 1.3 nM
CN(C)CCCN(C)C(=O)[C@H]1CCc2c(sc3ncnc(Nc4ccc5nnsc5c4)c23)C1 [Example 30, (7S)-4-(1,2,3-Benzothiadiazol-6-ylamino)-N-[3-(dimethylamino)propyl]-N-methyl-5,6,7,8-tetrahydro[1]benzothieno[2,3-d]pyrimidine-7-carboxamide] | 8.1 nM
CN(C)CCN1CCN(C(=O)[C@H]2CCc3c(sc4ncnc(Nc5ccc6nnsc6c5)c34)C2)CC1 [Example 12, [(7S)-4-(1,2,3-Benzothiadiazol-6-ylamino)-5,6,7,8-tetrahydro[1]benzothieno[2,3-d]pyrimidin-7-yl]{4-[2-(dimethylamino)ethyl]piperazin-1-yl}methanone] | 6.4 nM
CN(C)C(=O)[C@H]1CCc2c(sc3ncnc(Nc4ccc5nnsc5c4)c23)C1 [Example 1, (7S)-4-(1,2,3-Benzothiadiazol-6-ylamino)-N,N-dimethyl-5,6,7,8-tetrahydro[1]benzothieno[2,3-d]pyrimidine-7-carboxamide] | 16 nM
CN(CC(C)(C)O)C(=O)[C@H]1CCc2c(sc3ncnc(Nc4ccc5nnsc5c4)c23)C1 [Example 27, (7S)-4-(1,2,3-Benzothiadiazol-6-ylamino)-N-(2-hydroxy-2-methylpropyl)-N-methyl-5,6,7,8-tetrahydro[1]benzothieno[2,3-d]pyrimidine-7-carboxamide] | 15 nM
CN1C[C@@H]2C[C@H]1CN2C(=O)[C@H]1CCc2c(sc3ncnc(Nc4ccc5nnsc5c4)c23)C1 [Example 19, [(7S)-4-(1,2,3-Benzothiadiazol-6-ylamino)-5,6,7,8-tetrahydro[1]benzothieno[2,3-d]pyrimidin-7-yl][(1S,4S)-5-methyl-2,5-diazabicyclo[2.2.1]hept-2-yl]methanone] | 20 nM
COc1cc2nnsc2cc1Nc1ncnc2sc3c(c12)CC[C@H](C(=O)N1CC(N2CCCCC2)C1)C3 [Example 54, {(7S)-4-[(5-Methoxy-1,2,3-benzothiadiazol-6-yl)amino]-5,6,7,8-tetrahydro[1]benzothieno[2,3-d]pyrimidin-7-yl}[3-(piperidin-1-yl)azetidin-1-yl]methanone] | 9.2 nM
C[C@@H]1CN(C(=O)[C@H]2CCc3c(sc4ncnc(Nc5ccc6nnsc6c5)c34)C2)C[C@@H](C)O1 [Example 8, [(7S)-4-(1,2,3-Benzothiadiazol-6-ylamino)-5,6,7,8-tetrahydro[1]benzothieno[2,3-d]pyrimidin-7-yl][(2R,6R)-2,6-dimethylmorpholin-4-yl]methanone] | 6.4 nM

Results, then the molecule that gave them:

IC50 | Compound
41 nM | CC(C)N(C)C(=O)[C@H]1CCc2c(sc3ncnc(Nc4ccc5nnsc5c4)c23)C1 [Example 23, (7S)-4-(1,2,3-Benzothiadiazol-6-ylamino)-N-methyl-N-(propan-2-yl)-5,6,7,8-tetrahydro[1]benzothieno[2,3-d]pyrimidine-7-carboxamide]
1.1 nM | CCN(CCO)C(=O)[C@H]1CCc2c(sc3ncnc(Nc4cc5snnc5cc4OC)c23)C1 [Example 38, (7S)—N-Ethyl-N-(2-hydroxyethyl)-4-[(5-methoxy-1,2,3-benzothiadiazol-6-yl)amino]-5,6,7,8-tetrahydro[1]benzothieno[2,3-d]pyrimidine-7-carboxamide]
1.7 nM | COc1cc2nnsc2cc1Nc1ncnc2sc3c(c12)CC[C@H](C(=O)N1CC(C#N)C1)C3 [Example 44, 1-({(7S)-4-[(5-Methoxy-1,2,3-benzothiadiazol-6-yl)amino]-5,6,7,8-tetrahydro[1]benzothieno[2,3-d]pyrimidin-7-yl}carbonyl)azetidine-3-carbonitrile]
182 nM | COc1cc2nnsc2cc1Nc1ncnc2sc3c(c12)CC[C@H](C(=O)N1CCC1)C3 [Example 46, Azetidin-1-yl{(7S)-4-[(5-methoxy-1,2,3-benzothiadiazol-6-yl)amino]-5,6,7,8-tetrahydro[1]benzothieno[2,3-d]pyrimidin-7-yl}methanone]
2.1 nM | COc1cc2nnsc2cc1Nc1ncnc2sc3c(c12)CC[C@H](C(=O)N1CC[C@@H](N(C)C)C1)C3 [Example 52, [(3R)-3-(Dimethylamino)pyrrolidin-1-yl]{(7S)-4-[(5-methoxy-1,2,3-benzothiadiazol-6-yl)amino]-5,6,7,8-tetrahydro[1]benzothieno[2,3-d]pyrimidin-7-yl}methanone]
1.2 nM | COc1cc2nnsc2cc1Nc1ncnc2sc3c(c12)CC[C@H](C(=O)N(C)C(C)C)C3 [Example 37, (7S)-4-[(5-Methoxy-1,2,3-benzothiadiazol-6-yl)amino]-N-methyl-N-(propan-2-yl)-5,6,7,8-tetrahydro[1]benzothieno[2,3-d]pyrimidine-7-carboxamide]
2 nM | COc1cc2nnsc2cc1Nc1ncnc2sc3c(c12)CC[C@H](C(=O)N1CCC(N(C)CCN(C)C)CC1)C3 [Example 48, (4-{[2-(dimethylamino)ethyl](methyl)amino}piperidin-1-yl){(7S)-4-[(5-methoxy-1,2,3-benzothiadiazol-6-yl)amino]-5,6,7,8-tetrahydro[1]benzothieno[2,3-d]pyrimidin-7-yl}methanone]
0.8 nM | COc1cc2nnsc2cc1Nc1ncnc2sc3c(c12)CC[C@H](C(=O)N(C)CCNC(=O)OC(C)(C)C)C3 [Example 40, tert-Butyl {2-[({(7S)-4-[(5-methoxy-1,2,3-benzothiadiazol-6-yl)amino]-5,6,7,8-tetrahydro[1]benzothieno[2,3-d]pyrimidin-7-yl}carbonyl)(methyl)amino]ethyl}carbamate]
0.6 nM | COCCN(C)C(=O)[C@H]1CCc2c(sc3ncnc(Nc4cc5snnc5cc4OC)c23)C1 [Example 39, (7S)-4-[(5-Methoxy-1,2,3-benzothiadiazol-6-yl)amino]-N-(2-methoxyethyl)-N-methyl-5,6,7,8-tetrahydro[1]benzothieno[2,3-d]pyrimidine-7-carboxamide]
